Consider two compounds from paper PMC10144242, “Design, Synthesis, In Vitro, and In Silico Insights of 5-(Substituted benzylidene)-2-phenylthiazol-4(5H)-one Derivatives: A Novel Class of Anti-Melanogenic Compounds” (Molecules, 2023).

Assay type in all cases: cell-based, murine
One data set relates to B16F10 cells. Put plainly: Cell viability / cytotoxicity, EZ-Cytox assay. The note with it: concentrations ≤ 20 µM, 48 and 72 h. Here is the method:
Before investigating their inhibitory effects on B16F10 cells, the viability of (Z)-BPT derivatives 1–3 was examined in B16F10 cells.
To determine the cell viability, six different concentrations (0, 1, 2, 5, 10, and 20 µM) of (Z)-BPT derivatives 1–3 were used, and the results were examined at two time points (48 and 72 h). […] Based on the cell viability results, the concentrations for cell-based assays related to the melanin production level and cellular tyrosinase activity were determined.
Cytotoxicity studies of (Z)-BPT derivatives 1–3 were performed on B16F10 melanoma cells using the previously established EZ-Cytox (EZ-3000, DoGenBio, Seoul, Republic of Korea) test, and cytotoxicity studies of (Z)-BPT derivatives 1–3 were conducted on B16F10 melanoma cells. Briefly, B16F10 cells were seeded in a 96-well plate at a density of 1 × 10^4 cells/well and cultivated at 37 °C for 24 h in a humid environment with 5% CO2. […] The cells were then incubated at 37 °C for 2 h after 10 µL of the EZ-Cytox solution had been added to each well. To determine the cell viability, the absorbance of each well was measured at 450 nm using a microplate reader (VersaMax^TM, Molecular Devices, Sunnyvale, CA, USA). Each assay was performed in triplicates.
Figure 6 Effects of (Z)-BPT derivatives 1–3 on cell viability in B16F10 cells. Cytotoxic effects were measured using an EZ-Cytox assay at six different concentrations (0, 1, 2, 5, 10, and 20 µM) of 1–3. (A) Derivative 1; (B) Derivative 2; (C) Derivative 3. *** p < 0.001 for non-treated cells vs. cells treated with 3.

Data set [1] relates to tyrosinase protein expression in B16F10 cells. Description: Western blot of tyrosinase protein in IBMX/α-MSH-stimulated cells. The note with it: for tyrosinase expression level relative to untreated control: B16F10, 20 µM, IBMX 200 µM + α-MSH 1 µM, stimulator alone 6.6-fold (for 1), 5.7-fold (for 2); for effect on tyrosinase expression levels: B16F10, 5, 10, 20 µM, IBMX + α-MSH. On the procedure:
We investigated whether the derivatives 1 and 2 could influence the expression of tyrosinase protein using Western blotting. […] At 20 µM, derivatives 1 and 2 reduced the tyrosinase expression levels that increased during the stimulator treatment to 4.4- and 3.1-fold, respectively, implying that derivatives 1 and 2 may, in part, contribute to their anti-melanogenic actions by inhibiting tyrosinase expression.
After stimulating murine melanoma (B16F10) cells with α-MSH and IBMX for 24 h in the presence or absence of the tested derivatives at the indicated concentrations, the cells were lysed with lysis buffer containing protease and phosphatase inhibitors. Protein concentrations were determined using a BCA protein assay kit, according to the manufacturer’s instructions (Pierce, Rockford, IL, USA). Lysate proteins in each sample (10–20 µg) were subjected to 9% sodium dodecyl sulfate–polyacrylamide gel electrophoresis and electrophoretically transferred to a PVDF membrane (Millipore, Billerica, MA, USA) using a semi-dry system (Bio-Rad, Hercules, CA, USA). The membranes were incubated with 5% non-fat milk in TBST (0.1 M Tris-HCl, pH 7.5, 1.5 M NaCl, and 1% Tween 20) for 2 h. After blocking, the membranes were incubated with primary antibodies at 4 °C overnight. The following antibodies were used: tyrosinase and β-actin primary antibodies, as well as horseradish peroxidase-conjugated anti-mouse and anti-goat secondary antibodies (Santa Cruz Biotechnology, Dallas, TX, USA). The protein bands were visualized using the SuperSignal West Pico Chemiluminescence assay kit (Advansta, San Jose, CA, USA) and the Davinch–Chem program (Davinch-K, Seoul, Republic of Korea). The relative intensities were acquired using CS Analyzer 3.2 (Densitograph) image analysis software (http://www.attokorea.co.kr, accessed on 21 November 2022).
Figure 13 Effects of (Z)-BPT derivatives 1 and 2 on tyrosinase expression. Tyrosinase expression levels were evaluated in the presence of a stimulator (1 µM of α-MSH plus 200 µM of IBMX) with various concentrations (5, 10, and 20 µM) of derivatives 1 and 2 in B16F10 cells. ^### p < 0.001; * p < 0.05, and ** p < 0.01.
(Immunoblotting shows a protein as a band on a membrane.)

For data set [2], the target named is T1, B16F10 cellular tyrosinase (Mus musculus, UniProt P11344).
T1 construct: the anti-tyrosinase effects of these derivatives were investigated using B16F10 cells; host or cells: B16F10 murine melanoma cells
T1 sequence (P11344 19-533): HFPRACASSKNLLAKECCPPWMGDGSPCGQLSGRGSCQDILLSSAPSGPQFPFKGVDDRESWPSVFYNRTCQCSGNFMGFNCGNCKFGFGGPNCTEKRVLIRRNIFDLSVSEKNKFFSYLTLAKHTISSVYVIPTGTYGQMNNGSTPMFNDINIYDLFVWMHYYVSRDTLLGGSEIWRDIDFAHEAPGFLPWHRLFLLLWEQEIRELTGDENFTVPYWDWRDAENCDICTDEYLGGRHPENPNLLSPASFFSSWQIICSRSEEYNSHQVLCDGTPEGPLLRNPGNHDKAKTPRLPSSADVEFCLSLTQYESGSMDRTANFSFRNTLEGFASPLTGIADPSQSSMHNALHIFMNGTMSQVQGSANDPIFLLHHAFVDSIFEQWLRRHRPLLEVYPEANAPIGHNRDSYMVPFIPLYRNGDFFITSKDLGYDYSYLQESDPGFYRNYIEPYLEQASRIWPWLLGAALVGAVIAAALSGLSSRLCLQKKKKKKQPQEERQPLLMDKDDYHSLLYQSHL
Put plainly: Cellular anti-tyrosinase activity assay in IBMX/α-MSH-stimulated cells. The note with it: 72 h; for cellular tyrosinase inhibitory activity: IBMX + α-MSH; for effect on cellular tyrosinase activity enhanced by stimulators: B16F10, 5, 10, 20 µM, IBMX 200 µM + α-MSH 1 µM. On the procedure: To examine the origin of the anti-melanogenic effects of (Z)-BPT derivatives 1 and 2, the anti-tyrosinase effects of these derivatives were investigated using B16F10 cells. […] After 72 h of incubation, the effects of 1 and 2 on cellular tyrosinase activity were analyzed.
Briefly, B16F10 melanoma cells were seeded in a 6-well plate at a density of 1 × 10^5 cells/well and allowed to adhere to the bottom of each well under identical conditions to the cell culture. […] After incubation for 1 h, the tyrosinase activity of the cells was increased by treatment with 200 µM IBMX and 1 µM α-MSH. The cells were incubated for 72 h under identical conditions to cell culture before being rinsed twice with PBS, exposed to a 100 µL lysis buffer solution consisting of 90 µL phosphate buffer (50 mM) at pH 6.5, 5 µL PMSF (2 mM), and 5 µL Triton X-100 (20%), and then incubated for 30 min at −80 °C. The cell lysates were placed into microcentrifuge tubes after defrosting and they were centrifuged at 12,000 rpm at 4 °C for 30 min. The supernatants (80 µL) of the lysates were combined with 20 µL of 10 mM L-DOPA in a 96-well plate. Using a microplate reader used for the melanin content assay, the mixture’s absorbances were measured every 10 min for 1 h at 37 °C and 492 nm. Each experiment was performed independently in triplicates.
Figure 8 Anti-tyrosinase activities of (Z)-BPT derivatives 1 and 2 in B16F10 cells. […] (A) Derivative 1 and (B) derivative 2. Data are presented as the mean ± standard error of the mean. ^### p < 0.001; * p < 0.05, ** p < 0.01, and *** p < 0.001.

`O=C1N=C(c2ccccc2)S/C1=C\c1ccc(O)cc1O` [Compound 2, (Z)-5-(2,4-Dihydroxybenzylidene)-2-phenylthiazol-4(5H)-one]: the cytotoxicity entry in the data set on B16F10 cells was “did not show any perceptible cytotoxicity”. For the same compound, in data set [1], the “tyrosinase expression level relative to untreated control” value was determined as 3.1 fold. For the same compound, in data set [1], the “effect on tyrosinase expression levels” value is given as “significantly reduced the tyrosinase expression levels in a dose-dependent manner”. Further, the “cellular tyrosinase inhibitory activity” value in data set [2] (B16F10, 5 µM) is “comparable to that of 20 µM kojic acid”; in data set [2] (B16F10, 20 µM), “reduced the cellular tyrosinase activity to the levels observed in the untreated control”. Further, in data set [2], the “effect on cellular tyrosinase activity enhanced by stimulators” value is “dose-dependently and significantly decreased”.

Regarding `O=C1N=C(c2ccccc2)S/C1=C\c1ccc(O)cc1` [Compound 1, (Z)-5-(4-Hydroxybenzylidene)-2-phenylthiazol-4(5H)-one], the cytotoxicity result in the data set with B16F10 cells is “did not show any perceptible cytotoxicity”. Besides, in data set [1], the “tyrosinase expression level relative to untreated control” value turned out to be 4.4 fold and the “effect on tyrosinase expression levels” value is listed as “significantly reduced the tyrosinase expression levels in a dose-dependent manner”. The “cellular tyrosinase inhibitory activity” value in data set [2] (B16F10, 20 µM) is “stronger inhibitory activity than kojic acid”. Also, the “effect on cellular tyrosinase activity enhanced by stimulators” value in data set [2] was “dose-dependently and significantly decreased”.
